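Following 48 hours of exposure in 96-well plates, responses at five concentrations were used to interpolate endpoints linearly. Here, GI50 denotes the concentration required for 50% inhibition of growth.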 The source made the active and inactive calls. Rule as the data show it: active = GI50 up to about 1.1 µM and inactive = higher.
Experiments:
Test in all cases: NCI anticancer screen, dose series, 48 h
HT-29 = system: HT-29
U-251 = system: U-251
COLO 205 = system: COLO 205
RXF 393 = system: RXF 393
KM12 = system: KM12
LOX IMVI = system: LOX IMVI
CAKI-1 = system: CAKI-1
UO-31 = system: UO-31
HOP-62 = system: HOP-62
SF-268 = system: SF-268
MDA-MB-435 = system: MDA-MB-435
OVCAR-8 = system: OVCAR-8
Hs-578T = system: Hs-578T
A549 = system: A549
OVCAR-5 = system: OVCAR-5
IGROV-1 = system: IGROV-1
M14 = system: M14
SK-MEL-5 = system: SK-MEL-5
MDA-N = system: MDA-N
OVCAR-4 = system: OVCAR-4
NCI/ADR-RES = system: NCI/ADR-RES
BT-549 = system: BT-549
EKVX = system: EKVX
SK-OV-3 = system: SK-OV-3
A498 = system: A498
OVCAR-3 = system: OVCAR-3
NCI-H226 = system: NCI-H226
SK-MEL-28 = system: SK-MEL-28
HCT-116 = system: HCT-116
SNB-19 = system: SNB-19
MCF7 = system: MCF7
SR = system: SR
UACC-62 = system: UACC-62
ACHN = system: ACHN
SNB-75 = system: SNB-75
786-0 = system: 786-0
MDA-MB-231 = system: MDA-MB-231
SN12C = system: SN12C
HCC 2998 = system: HCC 2998
NCI-H23 = system: NCI-H23
SF-295 = system: SF-295
SF-539 = system: SF-539
MOLT-4 = system: MOLT-4
HOP-92 = system: HOP-92
PC-3 = system: PC-3
HCT-15 = system: HCT-15
NCI-H522 = system: NCI-H522
TK-10 = system: TK-10
K562 = system: K562
Malme-3M = system: Malme-3M
CCRF-CEM = system: CCRF-CEM
UACC-257 = system: UACC-257
NCI-H460 = system: NCI-H460
SW-620 = system: SW-620
DU-145 = system: DU-145
HL-60 = system: HL-60
SK-MEL-2 = system: SK-MEL-2
RPMI-8226 = system: RPMI-8226

CCN(CC)CCNc1n[n+]([O-])c2cc([N+](=O)[O-])ccc2[n+]1[O-]
GI50 (HT-29): 0.374 µM (active)
GI50 (U-251): 1.08 µM (active)
GI50 (COLO 205): 0.605 µM (active)
GI50 (RXF 393): 1.52 µM (inactive)
GI50 (KM12): 0.948 µM (active)
GI50 (LOX IMVI): 0.601 µM (active)
GI50 (CAKI-1): 0.337 µM (active)
GI50 (UO-31): 2.94 µM (inactive)
GI50 (HOP-62): 0.661 µM (active)
GI50 (SF-268): 1.11 µM (active)
GI50 (MDA-MB-435): 1.38 µM (inactive)
GI50 (OVCAR-8): 0.538 µM (active)
GI50 (Hs-578T): 2.59 µM (inactive)
GI50 (A549): 0.752 µM (active)
GI50 (OVCAR-5): 1.92 µM (inactive)
GI50 (IGROV-1): 0.191 µM (active)
GI50 (M14): 0.587 µM (active)
GI50 (SK-MEL-5): 0.714 µM (active)
GI50 (MDA-N): 0.863 µM (active)
GI50 (OVCAR-4): 1.31 µM (inactive)
GI50 (NCI/ADR-RES): 1.27 µM (inactive)
GI50 (BT-549): 2.37 µM (inactive)
GI50 (EKVX): 1.98 µM (inactive)
GI50 (SK-OV-3): 1.05 µM (active)
GI50 (A498): 1.79 µM (inactive)
GI50 (OVCAR-3): 0.893 µM (active)
GI50 (NCI-H226): 1.7 µM (inactive)
GI50 (SK-MEL-28): 6.32 µM (inactive)
GI50 (HCT-116): 0.483 µM (active)
GI50 (SNB-19): 1.4 µM (inactive)

CN(/N=C/C=N/N(C)C1=NCCCN1)C1=NCCCN1
GI50 (HT-29): > 100 µM (inactive)
GI50 (U-251): > 100 µM (inactive)
GI50 (COLO 205): > 100 µM (inactive)
GI50 (RXF 393): > 100 µM (inactive)
GI50 (MCF7): > 100 µM (inactive)
GI50 (KM12): > 100 µM (inactive)
GI50 (SR): > 100 µM (inactive)
GI50 (LOX IMVI): > 100 µM (inactive)
GI50 (CAKI-1): > 100 µM (inactive)
GI50 (UACC-62): > 100 µM (inactive)
GI50 (ACHN): > 100 µM (inactive)
GI50 (UO-31): > 100 µM (inactive)
GI50 (HOP-62): > 100 µM (inactive)
GI50 (SF-268): > 100 µM (inactive)
GI50 (SNB-75): > 100 µM (inactive)
GI50 (MDA-MB-435): > 100 µM (inactive)
GI50 (786-0): > 100 µM (inactive)
GI50 (OVCAR-8): > 100 µM (inactive)
GI50 (MDA-MB-231): > 100 µM (inactive)
GI50 (SN12C): > 100 µM (inactive)
GI50 (Hs-578T): > 100 µM (inactive)
GI50 (A549): > 100 µM (inactive)
GI50 (OVCAR-5): > 100 µM (inactive)
GI50 (IGROV-1): > 100 µM (inactive)
GI50 (M14): > 100 µM (inactive)
GI50 (SK-MEL-5): > 100 µM (inactive)
GI50 (MDA-N): > 100 µM (inactive)
GI50 (OVCAR-4): > 100 µM (inactive)
GI50 (NCI/ADR-RES): > 100 µM (inactive)
GI50 (HCC 2998): > 100 µM (inactive)
GI50 (BT-549): > 100 µM (inactive)
GI50 (NCI-H23): > 100 µM (inactive)
GI50 (EKVX): > 100 µM (inactive)
GI50 (SF-295): > 100 µM (inactive)
GI50 (SF-539): > 100 µM (inactive)
GI50 (SK-OV-3): > 100 µM (inactive)
GI50 (MOLT-4): > 100 µM (inactive)
GI50 (HOP-92): > 100 µM (inactive)
GI50 (PC-3): > 100 µM (inactive)
GI50 (HCT-15): > 100 µM
GI50 (OVCAR-3): > 100 µM (inactive)
GI50 (NCI-H522): > 100 µM (inactive)
GI50 (NCI-H226): > 100 µM (inactive)
GI50 (TK-10): > 100 µM (inactive)
GI50 (SK-MEL-28): > 100 µM (inactive)
GI50 (K562): > 100 µM (inactive)
GI50 (Malme-3M): > 100 µM (inactive)
GI50 (HCT-116): > 100 µM (inactive)
GI50 (CCRF-CEM): > 100 µM (inactive)
GI50 (UACC-257): > 100 µM (inactive)
GI50 (NCI-H460): > 100 µM (inactive)
GI50 (SNB-19): > 100 µM (inactive)
GI50 (SW-620): > 100 µM (inactive)

O=[N+]([O-])c1ccc(-c2csc3nc(-c4ccccc4)nn23)cc1
GI50 (HT-29): > 100 µM (inactive)
GI50 (U-251): 39.8 µM (inactive)
GI50 (COLO 205): > 100 µM (inactive)
GI50 (RXF 393): 40.8 µM (inactive)
GI50 (MCF7): > 100 µM (inactive)
GI50 (KM12): > 100 µM (inactive)
GI50 (SR): > 100 µM (inactive)
GI50 (LOX IMVI): > 100 µM (inactive)
GI50 (CAKI-1): 72.8 µM (inactive)
GI50 (UACC-62): > 100 µM (inactive)
GI50 (ACHN): > 100 µM (inactive)
GI50 (UO-31): > 100 µM (inactive)
GI50 (HOP-62): 43.9 µM (inactive)
GI50 (SF-268): 82 µM (inactive)
GI50 (SNB-75): 94.6 µM (inactive)
GI50 (MDA-MB-435): > 100 µM (inactive)
GI50 (786-0): 98.2 µM (inactive)
GI50 (OVCAR-8): 47.5 µM (inactive)
GI50 (MDA-MB-231): 44 µM (inactive)
GI50 (SN12C): > 100 µM (inactive)
GI50 (Hs-578T): > 100 µM (inactive)
GI50 (A549): > 100 µM (inactive)
GI50 (OVCAR-5): > 100 µM (inactive)
GI50 (IGROV-1): > 100 µM (inactive)
GI50 (M14): > 100 µM (inactive)
GI50 (SK-MEL-5): > 100 µM (inactive)
GI50 (MDA-N): > 100 µM (inactive)
GI50 (OVCAR-4): > 100 µM (inactive)
GI50 (NCI/ADR-RES): > 100 µM (inactive)
GI50 (HCC 2998): > 100 µM (inactive)
GI50 (BT-549): > 100 µM (inactive)
GI50 (NCI-H23): > 100 µM (inactive)
GI50 (EKVX): > 100 µM (inactive)
GI50 (DU-145): > 100 µM (inactive)
GI50 (SF-295): 28.3 µM (inactive)
GI50 (SK-OV-3): 61.9 µM (inactive)
GI50 (MOLT-4): > 100 µM (inactive)
GI50 (HOP-92): 50.5 µM (inactive)
GI50 (A498): > 100 µM (inactive)
GI50 (PC-3): > 100 µM (inactive)
GI50 (HCT-15): > 100 µM
GI50 (OVCAR-3): > 100 µM (inactive)
GI50 (NCI-H522): > 100 µM (inactive)
GI50 (HL-60): > 100 µM (inactive)
GI50 (NCI-H226): > 100 µM (inactive)
GI50 (TK-10): > 100 µM (inactive)
GI50 (SK-MEL-28): > 100 µM (inactive)
GI50 (SK-MEL-2): > 100 µM (inactive)
GI50 (K562): > 100 µM (inactive)
GI50 (Malme-3M): > 100 µM (inactive)
GI50 (HCT-116): > 100 µM (inactive)
GI50 (CCRF-CEM): > 100 µM (inactive)
GI50 (RPMI-8226): > 100 µM (inactive)
GI50 (UACC-257): > 100 µM (inactive)
GI50 (SNB-19): > 100 µM (inactive)
GI50 (SW-620): > 100 µM (inactive)
